The experiment concerns the target T1, human P2X4 (Homo sapiens, UniProt Q99571).
T1 sequence (Q99571 1-388): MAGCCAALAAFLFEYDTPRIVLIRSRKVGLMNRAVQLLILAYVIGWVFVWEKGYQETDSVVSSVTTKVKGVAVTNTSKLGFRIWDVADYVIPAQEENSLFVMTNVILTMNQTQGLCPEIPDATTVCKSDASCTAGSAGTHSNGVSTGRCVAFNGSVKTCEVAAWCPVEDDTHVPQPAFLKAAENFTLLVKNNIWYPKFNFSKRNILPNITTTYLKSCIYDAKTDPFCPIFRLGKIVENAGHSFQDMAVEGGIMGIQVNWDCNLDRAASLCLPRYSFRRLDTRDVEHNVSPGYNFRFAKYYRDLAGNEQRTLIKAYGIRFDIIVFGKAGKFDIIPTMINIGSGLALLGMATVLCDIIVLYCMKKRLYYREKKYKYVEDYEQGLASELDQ
Kind of experiment: Human P2X4 HEK Cell FLIPR Assay. In kind it is cell-based. The settings on record: agonist Bz-ATP at EC80; for Emax: HEK293, HEK293 cells, percentage of maximal inhibition, read-out: Human P2X4 HEK Cells (FLIPR Assay) avg Efficacy [%]; for IC50: HEK293 cells, individual values listed where some fall outside detection range. The gist of the method:
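HEK293 cells stably expressing human P2X4, Fluo8-AM loaded 30 min at 37° C, then compound 30 min at room temperature (0.5% DMSO, pH 7.4 buffer with 1.8 mM CaCl2). Bz-ATP at its daily-determined EC80 added; calcium fluorescence read over 120 sec; IC50 from peak RFU normalized to agonist control, triplicates.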

SMILES strings stand for the structures.

In the case of `NS(=O)(=O)c1cc(NC(=O)Cc2cccc(Cl)c2)ccc1-c1cncc(C(F)(F)F)c1` [Example 453, 2-(3-Chlorophenyl)-N-{3-sulfamoyl-4-[5-(trifluoromethyl)pyridin-3-yl]phenyl}acetamide], the Emax was 77% and the IC50 (as a rule, the concentration needed to halve the response being measured) was 74 nM.
For `Cc1ccc(CC(=O)Nc2ccc(-c3cncc(C(F)(F)F)c3)c(S(N)(=O)=O)c2)cc1` [Example 454, 2-(4-Methylphenyl)-N-{3-sulfamoyl-4-[5-(trifluoromethyl)pyridin-3-yl]phenyl}acetamide], the Emax came out at 58% and the IC50 is 1440 nM.
In the case of `COc1ccc(CC(=O)Nc2ccc(-c3cncc(C(F)(F)F)c3)c(S(N)(=O)=O)c2)cc1` [Example 455, 2-(4-Methoxyphenyl)-N-{3-sulfamoyl-4-[5-(trifluoromethyl)pyridin-3-yl]phenyl}acetamide], the Emax is 74% and the IC50 was 5 nM.
For `Cc1ccc(CC(=O)Nc2ccc(-c3cncc(C(F)(F)F)c3)c(S(N)(=O)=O)c2)c(F)c1` [Example 456, 2-(2-Fluoro-4-methylphenyl)-N-{3-sulfamoyl-4-[5-(trifluoromethyl)pyridin-3-yl]phenyl}acetamide], in that order: 59% and 18 nM.
For `COc1ccc(CC(=O)Nc2ccc(-c3cncc(C(F)(F)F)c3)c(S(N)(=O)=O)c2)c(F)c1` [Example 457, 2-(2-Fluoro-4-methoxyphenyl)-N-{3-sulfamoyl-4-[5-(trifluoromethyl)pyridin-3-yl]phenyl}acetamide], in that order: 70% and 558 nM.
For `NS(=O)(=O)c1cc(NC(=O)Cc2ccc(C(F)F)cc2)ccc1-c1cncc(C(F)(F)F)c1` [Example 458, 2-[4-(Difluoromethyl)phenyl]-N-{3-sulfamoyl-4-[5-(trifluoromethyl)pyridin-3-yl]phenyl}acetamide], the Emax is 85% and the IC50 was determined as 1080 nM.
In the case of `NS(=O)(=O)c1cc(NC(=O)Cc2ccc(Cl)cc2)ccc1-c1ccc(Cl)nc1` [Example 459, 2-(4-Chlorophenyl)-N-[4-(6-chloropyridin-3-yl)-3-sulfamoylphenyl]acetamide], the Emax was 88% and the IC50 was determined as 1340 nM.
`NS(=O)(=O)c1cc(NC(=O)Cc2ccccc2F)ccc1-c1ccc(Cl)nc1` [Example 460, N-[4-(6-Chloropyridin-3-yl)-3-sulfamoylphenyl]-2-(2-fluorophenyl)acetamide]: the Emax is 84% and the IC50 is 646 nM.
For the compound `NS(=O)(=O)c1cc(NC(=O)Cc2c(F)cccc2Cl)ccc1-c1ccc(Cl)nc1` [Example 461, 2-(2-Chloro-6-fluorophenyl)-N-[4-(6-chloropyridin-3-yl)-3-sulfamoylphenyl]acetamide], the Emax was determined as 93% and the IC50 is 137 nM.
The matching figures for `NS(=O)(=O)c1cc(NC(=O)Cc2ccc(C(F)(F)F)cc2)ccc1-c1ccc(Cl)nc1` [Example 462, N-[4-(6-Chloropyridin-3-yl)-3-sulfamoylphenyl]-2-[4-(trifluoromethyl)phenyl]acetamide]: 89% and 929 nM.
The matching figures for `NS(=O)(=O)c1cc(NC(=O)Cc2ccccc2C(F)(F)F)ccc1-c1ccc(Cl)nc1` [Example 463, N-[4-(6-Chloropyridin-3-yl)-3-sulfamoylphenyl]-2-[2-(trifluoromethyl)phenyl]acetamide]: 99% and 18 nM.
As for `NS(=O)(=O)c1cc(NC(=O)Cc2cccc(F)c2)ccc1-c1ccc(Cl)nc1` [Example 464, N-[4-(6-Chloropyridin-3-yl)-3-sulfamoylphenyl]-2-(3-fluorophenyl)acetamide], the Emax came to 92% and the IC50 is 648 nM.
Consider `NS(=O)(=O)c1cc(NC(=O)Cc2ccc(Cl)cc2Cl)ccc1-c1ccc(Cl)nc1` [Example 465, N-[4-(6-Chloropyridin-3-yl)-3-sulfamoylphenyl]-2-(2,4-dichlorophenyl)acetamide], for which the Emax turned out to be 92% and the IC50 stood at 26 nM.
In the case of `NS(=O)(=O)c1cc(NC(=O)Cc2ccc(F)cc2F)ccc1-c1ccc(Cl)nc1` [Example 466, N-[4-(6-Chloropyridin-3-yl)-3-sulfamoylphenyl]-2-(2,4-difluorophenyl)acetamide], the Emax is 91% and the half-maximal inhibitory concentration (IC50) turned out to be 363 nM.
As for `NS(=O)(=O)c1cc(NC(=O)Cc2ccccc2Br)ccc1-c1ccc(Cl)nc1` [Example 467, 2-(2-Bromophenyl)-N-[4-(6-chloropyridin-3-yl)-3-sulfamoylphenyl]acetamide], the Emax is 93% and the IC50 is 9 nM.
`NS(=O)(=O)c1cc(NC(=O)Cc2ccc(F)c(F)c2)ccc1-c1ccc(Cl)nc1` [Example 468, N-[4-(6-Chloropyridin-3-yl)-3-sulfamoylphenyl]-2-(3,4-difluorophenyl)acetamide]: the Emax turned out to be 97% and the half-inhibitory concentration (IC50) amounted to 278 nM.
Consider `Cc1ccc(CC(=O)Nc2ccc(-c3ccc(Cl)nc3)c(S(N)(=O)=O)c2)cc1` [Example 469, N-[4-(6-Chloropyridin-3-yl)-3-sulfamoylphenyl]-2-(4-methylphenyl)acetamide], for which the Emax was 90% and the IC50 came to 453 nM.
On to `COc1ccc(CC(=O)Nc2ccc(-c3ccc(Cl)nc3)c(S(N)(=O)=O)c2)cc1` [Example 470, N-[4-(6-Chloropyridin-3-yl)-3-sulfamoylphenyl]-2-(4-methoxyphenyl)acetamide], for which the Emax was 93% and the IC50 worked out at 483 nM.
For `Cc1ccc(CC(=O)Nc2ccc(-c3ccc(Cl)nc3)c(S(N)(=O)=O)c2)c(F)c1` [Example 471, N-[4-(6-Chloropyridin-3-yl)-3-sulfamoylphenyl]-2-(2-fluoro-4-methylphenyl)acetamide], in that order: 92% and 269 nM.
On to `COc1ccc(CC(=O)Nc2ccc(-c3ccc(Cl)nc3)c(S(N)(=O)=O)c2)c(F)c1` [Example 472, N-[4-(6-Chloropyridin-3-yl)-3-sulfamoylphenyl]-2-(2-fluoro-4-methoxyphenyl)acetamide], for which the Emax came out at 97% and the IC50 worked out at 197 nM.
`NS(=O)(=O)c1cc(NC(=O)Cc2ccc(C(F)F)cc2)ccc1-c1ccc(Cl)nc1` [Example 473, N-[4-(6-Chloropyridin-3-yl)-3-sulfamoylphenyl]-2-[4-(difluoromethyl)phenyl]acetamide]: the Emax was found to be 93% and the IC50 is 530 nM.
Turning to `NS(=O)(=O)c1cc(NC(=O)Cc2ccc(C(F)(F)F)cc2Cl)ccc1-c1ccc(Cl)nc1` [Example 474, N-[4-(6-Chloropyridin-3-yl)-3-sulfamoylphenyl]-2-[2-chloro-4-(trifluoromethyl)phenyl]acetamide], the Emax amounted to 93% and the IC50 turned out to be 323 nM.
In the case of `NS(=O)(=O)c1cc(NC(=O)Cc2ccc(Cl)cc2Cl)ccc1-c1cncc(F)c1` [Example 475, 2-(2,4-Dichlorophenyl)-N-[4-(5-fluoropyridin-3-yl)-3-sulfamoylphenyl]acetamide], the Emax is 88% and the IC50 is 64 nM.
In the case of `Cc1ccc(CC(=O)Nc2ccc(-c3cncc(F)c3)c(S(N)(=O)=O)c2)c(F)c1` [Example 476, 2-(2-Fluoro-4-methylphenyl)-N-[4-(5-fluoropyridin-3-yl)-3-sulfamoylphenyl]acetamide], the Emax was found to be 89% and the IC50 worked out at 58 nM.
With `NS(=O)(=O)c1cc(NC(=O)Cc2ccc(C(F)F)cc2)ccc1-c1cncc(F)c1` [Example 477, 2-[4-(Difluoromethyl)phenyl]-N-[4-(5-fluoropyridin-3-yl)-3-sulfamoylphenyl]acetamide], the Emax was 91% and the IC50 was 259 nM.
`NS(=O)(=O)c1cc(NC(=O)Cc2ccccc2Cl)ccc1-n1cc(C2CC2)cn1` [Example 478, 2-(2-Chlorophenyl)-N-[4-(4-cyclopropyl-1H-pyrazol-1-yl)-3-sulfamoylphenyl]acetamide]: the Emax was 82% and the half-inhibitory concentration (IC50) came out at 47 nM.
Consider `NS(=O)(=O)c1cc(NC(=O)Cc2ccccc2F)ccc1-n1nc2cc(F)cc(F)c2n1` [Example 479, N-[4-(4,6-Difluoro-2H-benzotriazol-2-yl)-3-sulfamoylphenyl]-2-(2-fluorophenyl)acetamide], for which the Emax was found to be 79% and the concentration for half-maximal inhibition (IC50) stood at 145 nM.
For `NS(=O)(=O)c1cc(NC(=O)Cc2ccccc2F)ccc1-n1nnc2c(F)cc(F)cc21` [Example 480, N-[4-(4,6-Difluoro-1H-benzotriazol-1-yl)-3-sulfamoylphenyl]-2-(2-fluorophenyl)acetamide], in that order: 105% and 125 nM.
The matching figures for `NS(=O)(=O)c1cc(NC(=O)Cc2ccccc2Cl)ccc1-n1nnc2c(F)cc(F)cc21` [Example 481, 2-(2-Chlorophenyl)-N-[4-(4,6-difluoro-1H-benzotriazol-1-yl)-3-sulfamoylphenyl]acetamide]: 103% and 50 nM.
Take `NS(=O)(=O)c1cc(NC(=O)Cc2ccccc2Cl)ccc1-n1nc2cc(F)cc(F)c2n1` [Example 482, 2-(2-Chlorophenyl)-N-[4-(4,6-difluoro-2H-benzotriazol-2-yl)-3-sulfamoylphenyl]acetamide]: the Emax came out at 73% and the concentration for half-maximal inhibition (IC50) was 2340 nM.

The values are drawn from US11524938B2, “Aromatic sulfonamide derivatives” (Bayer Pharma Aktiengesellschaft, priority 2016, dated 2022).
